Drawing on patent US7563798B2, “Substituted pyrazolo[1,5-a]pyrimidines as protein kinase inhibitors” (Schering Corporation, priority 2002, dated 2009), this text covers IC50 for 8 compounds.

The assay has as its target T1, Cyclin E/CDK2 (Homo sapiens, UniProt P24941).
T1 construct: made in house; host or cells: SF9 insect cells (baculovirus co-infection)
Briefly: Cyclin E/CDK2 in vitro kinase assay (33P-ATP, SPA beads). In kind it is biochemical.

For `Cc1cc(Nc2cc(C3CCCNC3)nc3c(-c4cnn(C)c4)cnn23)sn1` (centres unmarked), inhibition was half-maximal at 46 µM (IC50).

For `Cc1cc(Nc2cc(C3CCCNC3)nc3c(-c4cncs4)cnn23)sn1` (centres unmarked), 3.3 µM corresponded to half-maximal inhibition (IC50).

`Cc1cc(Nc2cc(C3CNCCS3)nc3c(-c4cnn(C)c4)cnn23)sn1` (centres unmarked) had a half-inhibitory concentration (IC50) of 40 µM.

In the case of `Cc1cc(Nc2cc(C3CCCNC3)nc3c(Br)cnn23)sn1` (centres unmarked), the half-inhibitory concentration (IC50) worked out at 0.076 µM.

Compound `Cc1cc(Nc2cc(C3CCCNC3)nc3c(-c4coc(C#N)c4)cnn23)sn1` (centres unmarked) had an IC50 of 3.6 µM.

In turn, `Cc1cc(Nc2cc(C3CCCNC3)nc3c(-c4coc(C=NO)c4)cnn23)sn1` (centres unmarked) displayed a 50% inhibitory concentration (IC50) of 0.05 µM.

In turn, `Cc1cc(Nc2cc(N3CC[C@@H](N)C3)nc3c(-c4cnn(C)c4)cnn23)sn1` returned a half-maximal inhibitory concentration (IC50) of 49 µM.

On to `Cc1cc(Nc2cc(N3CC(N)C3)nc3c(-c4cnn(C)c4)cnn23)sn1`, for which 6.7 µM corresponded to half-maximal inhibition (IC50).

Usually IC50 stands for the concentration that gives 50% inhibition.
